We go through one compound from ChEMBL document CHEMBL5729003, “Dihydropyrimidine compounds and uses thereof in medicine” (2022).

The nature of the test: Old liquid medium can be removed and replaced with new medium (200 μL) on day 0.Formulating the compound and treating the cells in the experiment of anti virus: the compound was dissolved in DMSO to a concentration of 30 mM, and then the compound solution was diluted with DMSO to a concentration of […], and then eight dilutions at 4 fold were performed, the highest concentration is 800 μM. The serial diluted compound was added to the above plate at 1 μL per well, the highest final concentration in the experiment is 4 μM (200 fold dilution). TDF (tenofovir dipiroxil fumarate, Selleck, Cat S1400) has a highest concentration of 4 μM as a positive control. […] at a final concentration of 0.5%, TDF was added in to the positive control well at a final concentration of 1 μM.Detection of Viral Genomic DNA by qPCRPrimer: HBV-For-202, […]; HBV-Rev-315, […]. Copies of virus can be calculated using a standard curve plotted by using plasmid containing HBV genome and using SYBR Premix Ex Taq II Takara DRR081S kit and 1 μL cell culture supernatant as a template. EC50 values of the compound on viral replication were calculated by a four parametric nonlinear regression model using Graphpad Prism 5 software to manage concentration—viral copy number. Conditions: HepG2.2.15.

For orientation: EC50 means the concentration giving half of the maximal effect. Turning to `COC[C@@H]1[C@H]2CN(c3ccc(C(C)(C)OC=O)cc3)C(=O)N2CCN1CC1=C(C(=O)OC)[C@H](c2ccc(F)cc2Cl)N=C(c2nccs2)N1`, the half-maximal effective concentration (EC50) is 5 nM.
